# Species: Rattus norvegicus
# Experiment: DrugMatrix - Regimen: Daily Repeat
# Assay type: toxicity, organism-based, Sprague-Dawley
# Parameters: regimen Daily Repeat, gender Male, age 6-8 weeks
# Conditions: in vivo, po, 0 mg/kg, route oral GAVAGE, dose level Control, vehicle .5 % CMC; for ABSOLUTE BASOPHIL / ABSOLUTE EOSINOPHIL / ABSOLUTE LYMPHOCYTE / ABSOLUTE MONOCYTE / ABSOLUTE SEGMENTED NEUTROPHIL / BASOPHIL / EOSINOPHIL / ERYTHROCYTE COUNT / HEMATOCRIT / HEMOGLOBIN / LEUKOCYTE COUNT / LYMPHOCYTE / MEAN CORPUSCULAR HEMOGLOBIN / MEAN CORPUSCULAR HEMOGLOBIN CONCENTRATION / MEAN CORPUSCULAR VOLUME / MONOCYTE / NEUTROPHIL / NUCLEATED RED BLOOD CELLS / PLATELET COUNT: tissue Blood; for ALANINE AMINOTRANSFERASE / ALBUMIN / ALKALINE PHOSPHATASE / ASPARTATE AMINOTRANSFERASE / BLOOD UREA NITROGEN / CARBON DIOXIDE / CHLORIDE / CHOLESTEROL / CREATININE / GLUCOSE / LACTATE DEHYDROGENASE / LIPASE / PHOSPHORUS / POTASSIUM / SODIUM / TOTAL BILIRUBIN / TOTAL PROTEIN / URIC ACID: tissue Plasma
structure (smiles),measurement,setting,value
COc1ccccc1[N+](=O)[O-] [2-NITROANISOLE],ABSOLUTE BASOPHIL,"72 h, time 3 day",0 CELLS/uL
same,ABSOLUTE EOSINOPHIL,"72 h, time 3 day",279.83 CELLS/uL
same,ABSOLUTE LYMPHOCYTE,"72 h, time 3 day",13152.5 CELLS/uL
same,ABSOLUTE MONOCYTE,"72 h, time 3 day",1013.83 CELLS/uL
same,ABSOLUTE SEGMENTED NEUTROPHIL,"72 h, time 3 day",2420.5 CELLS/uL
same,BASOPHIL,"72 h, time 3 day",0%
same,EOSINOPHIL,"72 h, time 3 day",1.67%
same,ERYTHROCYTE COUNT,"72 h, time 3 day",5.26 x10E6/uL
same,HEMATOCRIT,"72 h, time 3 day",32.22%
same,HEMOGLOBIN,"72 h, time 3 day",12.02 G/DL
same,LEUKOCYTE COUNT,"72 h, time 3 day",16.87 x10E3/uL
same,LYMPHOCYTE,"72 h, time 3 day",77.83%
same,MEAN CORPUSCULAR HEMOGLOBIN,"72 h, time 3 day",22.93 pg
same,MEAN CORPUSCULAR HEMOGLOBIN CONCENTRATION,"72 h, time 3 day",37.32 G/DL
same,MEAN CORPUSCULAR VOLUME,"72 h, time 3 day",61.4 fL
same,MONOCYTE,"72 h, time 3 day",6%
same,NEUTROPHIL,"72 h, time 3 day",14.5%
same,NUCLEATED RED BLOOD CELLS,"72 h, time 3 day",0 /100WBC
same,PLATELET COUNT,"72 h, time 3 day",1122.17 x10E3/uL
same,ALANINE AMINOTRANSFERASE,"72 h, time 3 day",55.67 u/L
same,ALBUMIN,"72 h, time 3 day",4.35 G/DL
same,ALKALINE PHOSPHATASE,"72 h, time 3 day",362.67 u/L
same,ASPARTATE AMINOTRANSFERASE,"72 h, time 3 day",96 u/L
same,BLOOD UREA NITROGEN,"72 h, time 3 day",18 mg/dL
same,CARBON DIOXIDE,"72 h, time 3 day",27.5 mmol/L
same,CHLORIDE,"72 h, time 3 day",100.17 MEQ/L
same,CHOLESTEROL,"72 h, time 3 day",74.5 mg/dL
same,CREATININE,"72 h, time 3 day",0.17 mg/dL
same,GLUCOSE,"72 h, time 3 day",141.67 mg/dL
same,LACTATE DEHYDROGENASE,"72 h, time 3 day",682.5 u/L
same,LIPASE,"72 h, time 3 day",10 u/L
same,PHOSPHORUS,"72 h, time 3 day",11.5 mg/dL
same,POTASSIUM,"72 h, time 3 day",6.41 MEQ/L
same,SODIUM,"72 h, time 3 day",141.2 MEQ/L
same,TOTAL BILIRUBIN,"72 h, time 3 day",0.18 mg/dL
same,TOTAL PROTEIN,"72 h, time 3 day",5.88 G/DL
same,URIC ACID,"72 h, time 3 day",1.4 mg/dL
same,ABSOLUTE BASOPHIL,"120 h, time 5 day",0 CELLS/uL
same,ABSOLUTE EOSINOPHIL,"120 h, time 5 day",18.5 CELLS/uL
same,ABSOLUTE LYMPHOCYTE,"120 h, time 5 day",8146.83 CELLS/uL
same,ABSOLUTE MONOCYTE,"120 h, time 5 day",204.83 CELLS/uL
same,ABSOLUTE SEGMENTED NEUTROPHIL,"120 h, time 5 day",1329.83 CELLS/uL
same,BASOPHIL,"120 h, time 5 day",0%
same,EOSINOPHIL,"120 h, time 5 day",0.17%
same,ERYTHROCYTE COUNT,"120 h, time 5 day",5.37 x10E6/uL
same,HEMATOCRIT,"120 h, time 5 day",33.17%
same,HEMOGLOBIN,"120 h, time 5 day",12.07 G/DL
same,LEUKOCYTE COUNT,"120 h, time 5 day",9.7 x10E3/uL
same,LYMPHOCYTE,"120 h, time 5 day",85.33%
same,MEAN CORPUSCULAR HEMOGLOBIN,"120 h, time 5 day",22.52 pg
same,MEAN CORPUSCULAR HEMOGLOBIN CONCENTRATION,"120 h, time 5 day",36.42 G/DL
same,MEAN CORPUSCULAR VOLUME,"120 h, time 5 day",61.78 fL
same,MONOCYTE,"120 h, time 5 day",1.83%
same,NEUTROPHIL,"120 h, time 5 day",12.67%
same,NUCLEATED RED BLOOD CELLS,"120 h, time 5 day",0 /100WBC
same,PLATELET COUNT,"120 h, time 5 day",907.5 x10E3/uL
same,ALANINE AMINOTRANSFERASE,"120 h, time 5 day",58.5 u/L
same,ALBUMIN,"120 h, time 5 day",4.4 G/DL
same,ALKALINE PHOSPHATASE,"120 h, time 5 day",377.67 u/L
same,ASPARTATE AMINOTRANSFERASE,"120 h, time 5 day",140.33 u/L
same,BLOOD UREA NITROGEN,"120 h, time 5 day",15.33 mg/dL
same,CARBON DIOXIDE,"120 h, time 5 day",32.17 mmol/L
same,CHLORIDE,"120 h, time 5 day",100 MEQ/L
same,CHOLESTEROL,"120 h, time 5 day",71.83 mg/dL
same,CREATININE,"120 h, time 5 day",0.18 mg/dL
same,GLUCOSE,"120 h, time 5 day",185 mg/dL
same,LACTATE DEHYDROGENASE,"120 h, time 5 day",241.5 u/L
same,LIPASE,"120 h, time 5 day",9.5 u/L
same,PHOSPHORUS,"120 h, time 5 day",13.02 mg/dL
same,POTASSIUM,"120 h, time 5 day",6.45 MEQ/L
same,SODIUM,"120 h, time 5 day",143.45 MEQ/L
same,TOTAL BILIRUBIN,"120 h, time 5 day",0.22 mg/dL
same,TOTAL PROTEIN,"120 h, time 5 day",6.1 G/DL
same,URIC ACID,"120 h, time 5 day",1 mg/dL
same,ABSOLUTE BASOPHIL,"[…], time 14 day",0 CELLS/uL
same,ABSOLUTE EOSINOPHIL,"[…], time 14 day",117.17 CELLS/uL
same,ABSOLUTE LYMPHOCYTE,"[…], time 14 day",13562 CELLS/uL
same,ABSOLUTE MONOCYTE,"[…], time 14 day",534.83 CELLS/uL
same,ABSOLUTE SEGMENTED NEUTROPHIL,"[…], time 14 day",2486 CELLS/uL
same,BASOPHIL,"[…], time 14 day",0%
same,EOSINOPHIL,"[…], time 14 day",0.83%
same,ERYTHROCYTE COUNT,"[…], time 14 day",6.14 x10E6/uL
same,HEMATOCRIT,"[…], time 14 day",36.87%
same,HEMOGLOBIN,"[…], time 14 day",13.87 G/DL
same,LEUKOCYTE COUNT,"[…], time 14 day",16.7 x10E3/uL
same,LYMPHOCYTE,"[…], time 14 day",81%
same,MEAN CORPUSCULAR HEMOGLOBIN,"[…], time 14 day",22.63 pg
same,MEAN CORPUSCULAR HEMOGLOBIN CONCENTRATION,"[…], time 14 day",37.62 G/DL
same,MEAN CORPUSCULAR VOLUME,"[…], time 14 day",60.15 fL
same,MONOCYTE,"[…], time 14 day",3.17%
same,NEUTROPHIL,"[…], time 14 day",15%
same,NUCLEATED RED BLOOD CELLS,"[…], time 14 day",0 /100WBC
same,PLATELET COUNT,"[…], time 14 day",974.83 x10E3/uL
same,ALANINE AMINOTRANSFERASE,"[…], time 14 day",52.33 u/L
same,ALBUMIN,"[…], time 14 day",4.48 G/DL
same,ALKALINE PHOSPHATASE,"[…], time 14 day",346.17 u/L
same,ASPARTATE AMINOTRANSFERASE,"[…], time 14 day",81 u/L
same,BLOOD UREA NITROGEN,"[…], time 14 day",15.67 mg/dL
same,CARBON DIOXIDE,"[…], time 14 day",34.33 mmol/L
same,CHLORIDE,"[…], time 14 day",100.17 MEQ/L
same,CHOLESTEROL,"[…], time 14 day",70.83 mg/dL
same,CREATININE,"[…], time 14 day",0.22 mg/dL
same,GLUCOSE,"[…], time 14 day",141.17 mg/dL
same,LACTATE DEHYDROGENASE,"[…], time 14 day",121.33 u/L
same,LIPASE,"[…], time 14 day",8.33 u/L
same,PHOSPHORUS,"[…], time 14 day",9.97 mg/dL
same,POTASSIUM,"[…], time 14 day",6.4 MEQ/L
same,SODIUM,"[…], time 14 day",143.72 MEQ/L
same,TOTAL BILIRUBIN,"[…], time 14 day",0.22 mg/dL
same,TOTAL PROTEIN,"[…], time 14 day",6.45 G/DL
same,URIC ACID,"[…], time 14 day",1.25 mg/dL

# From ChEMBL document CHEMBL3885881, “DrugMatrix”
